# Reference: publication PMC8751641, “Synthesis and Antiviral Activities of Neoechinulin B and Its Derivatives” (Journal of Natural Products, 2021)
# What was measured:
# HCV JFH-1 [1] = system: HCV JFH-1; set-up: method as in PMID 27489280; details: cited from earlier work
# [2] = Cell viability of VeroE6/TMPRSS2 cells (DAPI staining, cell count); type: cell-based; details: chlorocebus sabaeus, 24 h, DAPI staining, surviving cell number, read-out: Cytotoxicity CC50
# Procedure: (§1) The number of cells was quantified based on the measurement of the DNA content.[20] Cell growth inhibition was evaluated as the ratio of the absorbance of the sample to that of the control. […] The cells were washed with PBS and fixed in 4% paraformaldehyde. The resultant cells were stained with 0.02% 4′,6-diamidino-2-phenylindole (DAPI) and washed with PBS four times. The number of surviving cells was quantified with a high-content imaging analyzer, ImageXpress Micro Confocal (Molecular Device, San Jose, CA, USA).
# recombinant LXRα = system: recombinant LXRα; set-up: method as in PMID 27489280; details: cited from earlier work
# HCV JFH-1 [3] = assay: Anti-HCV assay (infectivity of HCV in the medium, focus-forming assay); type: cell-based; details: Hepatitis C virus, Huh-7.5.1; Huh7.5.1 cells, HCV JFH-1 MOI 0.15, 72 h; mean ± SD, triplicate
# Procedure: (§2) The anti-HCV assay was performed as described previously.[3] In brief, Huh7.5.1 cells were treated with HCV JFH-1 at a multiplicity of infection (MOI) of 0.15 for 4 h. […] The infectivity of HCV in the medium was quantified by a focus-forming assay with Huh7.5.1 cells. Cell viability at 72 h post-treatment was simultaneously measured by the MTT assay.[16] Cell growth inhibition was evaluated as the ratio of the absorbance of the sample to that of the control.
# [4] = system: influenza A virus subtype H1N1; set-up: method as in PMID 25681711; details: by targeting viral hemagglutinin; cited from earlier work
# poliovirus = details: cited from earlier work
# SARS-CoV-2 Wk-521 strain = assay: Anti-SARS-CoV-2 assay (extracellular viral RNA, VeroE6/TMPRSS2 cells); details: for IC50: read-out: Anti-SARS-CoV-2 activity IC50, MOI 0.003, 24 h, extracellular viral RNA, mean ± SD, triplicate; for IC90: read-out: Anti-SARS-CoV-2 activity IC90, MOI 0.003, 24 h, extracellular viral RNA, mean ± SD, triplicate
# [5] = MTT assay, cytotoxicity against host Huh7.5.1 cells; type: cell-based; details: human
# Procedure: as §2
# recombinant LXRβ = system: recombinant LXRβ; set-up: method as in PMID 27489280; details: cited from earlier work
# VeroE6/TMPRSS2 cells = assay: Cell viability of VeroE6/TMPRSS2 cells (DAPI staining, cell count); type: cell-based
# Procedure: as §1
# LXR = assay: LXRE-driven luciferase reporter assay in Huh-7 cells; details: 48 h
SMILES,Antiviral effects against HCV (earlier report) (HCV JFH-1 [1]),CC50 at 24 h [2] [µM],Interaction with LXRα (SPR) (recombinant LXRα),IC50 (HCV JFH-1 [3]) [µM],IC90 (HCV JFH-1 [3]) [µM],Entry of influenza A virus subtype H1N1 [4],Poliovirus RNA replication in DMVs (poliovirus),IC50 (SARS-CoV-2 Wk-521 strain) [µM],IC90 (SARS-CoV-2 Wk-521 strain) [µM],CC50 at 72 h [5] [µM],Interaction with LXRβ (SPR) (recombinant LXRβ),melting point [°C],Anti-SARS-CoV-2 activity (in words) (SARS-CoV-2 Wk-521 strain),Toxicity toward the host cells (in words) (VeroE6/TMPRSS2 cells),LXRE-driven luciferase activity (agonist) (LXR)
"C=CC(C)(C)c1[nH]c2ccccc2c1/C=c1\[nH]c(=O)c(=C)[nH]c1=O [1a, neoechinulin B]",exhibited antiviral effects against hepatitis C virus (HCV),> 70,interacts with recombinant LXRα and LXRβ,4.7 ± 1.4,> 20,inhibit the entry of influenza A virus subtype H1N1,reduced the RNA replication of poliovirus,32.9 ± 13.2,45.6 ± 7.4,> 20,interacts with recombinant LXRα and LXRβ,–,–,–,–
"C=c1[nH]c(=O)/c(=C/c2c[nH]c3ccccc23)[nH]c1=O [1b, (Z)-3-[(1H-Indol-3-yl)methylene]-6-methylenepiperazine-2,5-dione]",–,> 100,–,2.2 ± 0.64,> 20,–,–,> 40,> 40,> 20,–,285 to 286,did not show anti-SARS-CoV-2 activity,–,–
C=c1[nH]c(=O)/c(=C/c2ccccc2)[nH]c1=O [1c],–,40.1 ± 10.5,–,0.0059 ± 0.0042,> 20,–,–,13.6 ± 3.2,20.3 ± 3.2,> 20,–,242 to 243,exhibited anti-SARS-CoV-2 activity,–,–
C=c1[nH]c(=O)/c(=C/c2ccoc2)[nH]c1=O [1d],–,> 80,–,1.4 ± 0.34,> 20,–,–,9.3 ± 6.2,21.2 ± 9,> 20,–,242 to 243,exhibited anti-SARS-CoV-2 activity,–,–
C=c1[nH]c(=O)/c(=C/c2ccsc2)[nH]c1=O [1e],–,42.2 ± 7.9,–,1.4 ± 0.48,> 20,–,–,–,–,> 20,–,242 to 243,–,showed toxicity toward the host cells,–
C=c1[nH]c(=O)/c(=C/c2cc(C(C)(C)C)cc(C(C)(C)C)c2)[nH]c1=O [1f],–,> 100,–,0.015 ± 0.019,> 20,–,–,–,> 40,> 20,–,204 to 205,did not show anti-SARS-CoV-2 activity,–,–
C=c1[nH]c(=O)/c(=C/c2ccc(C(C)(C)C)cc2)[nH]c1=O [1g],–,> 70,–,1.1 ± 0.34,> 20,–,–,–,> 40,> 20,–,212 to 213,did not show anti-SARS-CoV-2 activity,–,–
C=c1[nH]c(=O)/c(=C/c2ccc(C)cc2)[nH]c1=O [1h],–,63.1 ± 17.9,–,2.7 ± 1.4,> 20,–,–,6 ± 2.4,16.3 ± 6.2,> 20,–,237 to 239,exhibited anti-SARS-CoV-2 activity,–,–
C=c1[nH]c(=O)/c(=C/c2ccc(OC)cc2)[nH]c1=O [1i],–,47.2 ± 0.6,–,1.3 ± 0.42,> 20,–,–,–,–,> 20,–,229 to 231,–,showed toxicity toward the host cells,–
C=c1[nH]c(=O)/c(=C/c2ccc(OC)c(OC)c2)[nH]c1=O [1j],–,62.8 ± 17.4,–,2 ± 0.068,> 20,–,–,10.3 ± 3.7,20.1 ± 8.5,> 20,–,237 to 238,exhibited anti-SARS-CoV-2 activity,–,–
C=c1[nH]c(=O)/c(=C/c2cc(OC)c(OC)c(OC)c2)[nH]c1=O [1k],–,78.8 ± 4.5,–,1.1 ± 0.6,> 20,–,–,–,> 40,> 20,–,219 to 221,did not show anti-SARS-CoV-2 activity,–,–
C=c1[nH]c(=O)/c(=C/c2ccc(C(=O)OC)cc2)[nH]c1=O [1l],–,> 50,–,1.2 ± 0.16,6.5 ± 1.84,–,–,8.4 ± 2.1,14.1 ± 1.8,> 20,–,248 to 249,exhibited anti-SARS-CoV-2 activity,–,–
C=c1[nH]c(=O)/c(=C/c2ccc(N(C)C)cc2)[nH]c1=O [1m],–,28.3 ± 6.2,–,1.2 ± 0.54,> 20,–,–,–,–,> 20,–,225 to 227,–,showed toxicity toward the host cells,–
C=c1[nH]c(=O)/c(=C/c2ccc(C(F)(F)F)cc2)[nH]c1=O [1n],–,30.1 ± 7.3,–,1.6 ± 0.32,9.7 ± 1.06,–,–,–,–,> 20,–,244 to 245,–,showed toxicity toward the host cells,–
C=c1[nH]c(=O)/c(=C/c2ccc(-c3ccccc3)cc2)[nH]c1=O [1o],–,> 100,–,4.9 ± 0.66,> 20,–,–,20.8 ± 8,> 40,> 20,–,229 to 230,exhibited anti-SARS-CoV-2 activity,–,–
C=c1[nH]c(=O)/c(=C/c2ccc3ccccc3c2)[nH]c1=O [1p],–,40.7 ± 20.1,–,0.26 ± 0.11,1.9 ± 0.65,–,–,> 40,> 40,> 20,–,216 to 217,did not show anti-SARS-CoV-2 activity,–,–
O=S(=O)(c1ccccc1)N(CC(F)(F)F)c1ccc(C(O)(C(F)(F)F)C(F)(F)F)cc1 [T0901317],–,–,–,–,–,–,–,–,–,–,–,–,–,–,increased the LXRE-driven luciferase activity
"C=CC(C)(C)c1[nH]c2ccccc2c1/C=C1\NC(=O)C(C)(OC)NC1=O (stereo not shown) [compound 6, variecolorin H]",–,> 100,–,> 20,> 20,–,–,> 40,> 40,> 20,–,–,–,–,–
"C=CC(C)(C)c1[nH]c2ccccc2c1C[C@@H]1NC(=O)[C@H](C)NC1=O [compound 8, preechinulin]",–,> 100,–,> 20,> 20,–,–,> 40,> 40,> 20,–,–,–,–,–
